How the values were obtained:
[1] = Bioavailability of esters of methionine after spot dose to cows (Example 2); format: in vivo, cow
Procedure: The bioavailability of the esters was evaluated.
The samples were stored in a freezer.
The procedure of (b1) was repeated using 72 g of methionine ethyl ester hydrochloride, prepared as detailed above
• cyclohexyl methioninate: 122 g • methionine methyl ester hydrochloride: 73 g • sec butyl methioninate: 72 g

[2] = bovine, in vivo
Procedure: Spot doses of the following amounts of the esters prepared as detailed above, equating to 50 g of methionine equivalent, were given to 2 cows in the manner described in Example 2(b1) above. • methyl ester of HMB: 64.8 g • ethyl ester of HMB: 74.8 g • isopropyl ester of HMB: 80.5 g • n-butyl ester of HMB: 96 g • cyclohexyl ester of HMB: 97.5 g • see butyl ester of HMB: 79 g The concentration of methionine and HMB was measured over a period of 27 hours.
56 g of methyl methioninate and 72 g of n-propyl methioninate (providing an equivalent 50 g of DL-methionine), prepared as detailed above, were supplied to two cows as a spot dose at 7.45 am just before the morning feed.
The ration given to the cows was distributed as two equal meals at 08.00 hours and 16.00 hours comprised 7 kg of hay and 2 kg concentrate.
Samples of blood were taken by jugular vein puncture 09.00, 10.00, 11.00, 13.00 and 15.00 hours on the day where the ester was given to the animal and at 09.00, 12.00 and 15.00 hours on the day before and two days after supply.
The plasma from each sample was isolated from the blood samples by centrifuging the blood at 3000 revs per minute for 10 minutes. The samples were stored in a freezer. The assay for methionine was carried out according to the standard procedure of Moore and Stein.
The results were plotted using the conventional AUC method wherein the areas under the curves are calculated to obtain the bioavailability values for each ester.

| [met] methionine concentration in blood plasma ([1]; bovine, in vivo, 0 h) | [met] methionine concentration in blood plasma ([1]; bovine, in vivo, 1 h) | [met] methionine concentration in blood plasma ([1]; bovine, in vivo, 2 h) | [met] methionine concentration in blood plasma ([1]; bovine, in vivo, 3 h) | [met] methionine concentration in blood plasma ([1]; bovine, in vivo, 5 h) | [met] methionine concentration in blood plasma ([1]; bovine, in vivo, 7 h) | [met] methionine concentration in blood plasma ([1]; bovine, in vivo, 28 h) | Bioavailability % ([1]; bovine, in vivo, po) [%] | [met] methionine concentration in blood plasma ([1]; 0 hours after administration, spot dose equivalent to 50 g methionine, 2 cows) | [met] methionine concentration in blood plasma ([1]; 1 hour after administration, spot dose equivalent to 50 g methionine, 2 cows) | [met] methionine concentration in blood plasma ([1]; 2 hours after administration, spot dose equivalent to 50 g methionine, 2 cows) | [met] methionine concentration in blood plasma ([1]; 3 hours after administration, spot dose equivalent to 50 g methionine, 2 cows) | [met] methionine concentration in blood plasma ([1]; 5 hours after administration, spot dose equivalent to 50 g methionine, 2 cows) | [met] methionine concentration in blood plasma ([1]; 7 hours after administration, spot dose equivalent to 50 g methionine, 2 cows) | [met] methionine concentration in blood plasma ([1]; 28 hours after administration, spot dose equivalent to 50 g methionine, 2 cows) | Bioavailability % ([1]; AUC method, spot dose equivalent to 50 g methionine) [%] | Bioavailability [2] [%] | methionine equivalent provided to the cow by rumen absorption ([1]; bovine, in vivo) | time after intake within which methionine is provided to the blood stream ([1]; bovine, in vivo) | Compound |
| --- | --- | --- | --- | --- | --- | --- | --- | --- | --- | --- | --- | --- | --- | --- | --- | --- | --- | --- | --- |
| 0.33 mg/100 g of blood plasma | 0.38 mg/100 g of blood plasma | 0.37 mg/100 g of blood plasma | 0.37 mg/100 g of blood plasma | 0.44 mg/100 g of blood plasma | 0.45 mg/100 g of blood plasma | 0.28 mg/100 g of blood plasma | 3 |  |  |  |  |  |  |  |  |  |  |  | CCCCCCCCCCCCOC(=O)[C@@H](N)CCSC [Dodecyl methioninate, dodecyl methioninate] |
| 0.32 mg/100 g of blood plasma | 2.29 mg/100 g of blood plasma | 1.70 mg/100 g of blood plasma | 1.55 mg/100 g of blood plasma | 1.27 mg/100 g of blood plasma | 1.14 mg/100 g of blood plasma | 0.32 mg/100 g of blood plasma | 22 |  |  |  |  |  |  |  |  |  |  |  | CCCOC(=O)[C@@H](N)CCSC [n-propyl methioninate] |
| 0.35 mg/100 g of blood plasma | 2.75 mg/100 g of blood plasma | 2.49 mg/100 g of blood plasma | 2.39 mg/100 g of blood plasma | 1.75 mg/100 g of blood plasma | 1.56 mg/100 g of blood plasma | 0.44 mg/100 g of blood plasma | 28 |  |  |  |  |  |  |  |  |  |  |  | CCC(C)OC(=O)[C@@H](N)CCSC (some centres unmarked) [sec butyl methioninate] |
| 0.37 mg/100 g of blood plasma | 0.37 mg/100 g of blood plasma | 0.37 mg/100 g of blood plasma | 0.34 mg/100 g of blood plasma | 0.37 mg/100 g of blood plasma | 0.31 mg/100 g of blood plasma | 0.38 mg/100 g of blood plasma | 1 |  |  |  |  |  |  |  |  |  |  |  | CCCCCCCCCCCCCCCCCCOC(=O)[C@@H](N)CCSC [n-octadecyl methioninate] |
|  |  |  |  |  |  |  |  | 0.26 mg/100 g of blood plasma | 1.84 mg/100 g of blood plasma | 1.97 mg/100 g of blood plasma | 1.53 mg/100 g of blood plasma | 1.12 mg/100 g of blood plasma | 0.86 mg/100 g of blood plasma | 0.36 mg/100 g of blood plasma | 20 |  |  |  | CCOC(=O)[C@H](CCSC)NC(C)=O [ethyl N-acetyl methioninate] |
|  |  |  |  |  |  |  |  |  |  |  |  |  |  |  |  | 17 |  |  | CCCCOC(=O)C(O)CCSC (centres unmarked) [n-butyl ester of HMB] |
| 0.32 mg/100 g of blood plasma | 1.10 mg/100 g of blood plasma | 0.74 mg/100 g of blood plasma | 0.63 mg/100 g of blood plasma | 0.62 mg/100 g of blood plasma | 0.61 mg/100 g of blood plasma | 0.27 mg/100 g of blood plasma | 8 |  |  |  |  |  |  |  |  |  |  |  | CCCCOC(=O)[C@@H](N)CCSC [n-butyl methioninate] |
|  |  |  |  |  |  |  |  |  |  |  |  |  |  |  |  | 31 |  |  | CCC(C)OC(=O)C(O)CCSC (centres unmarked) [Sec butyl ester of HMB] |
| 0.34 mg/100 g of blood plasma | 4.08 mg/100 g of blood plasma | 3.87 mg/100 g of blood plasma | 3.25 mg/100 g of blood plasma | 2.57 mg/100 g of blood plasma | 2.51 mg/100 g of blood plasma | 0.41 mg/100 g of blood plasma | 51 |  |  |  |  |  |  |  |  |  |  |  | COC(=O)[C@@H](N)CCSC [Methyl methioninate, methyl methioninate] |
| 0.37 mg/100 g of blood plasma | 4.84 mg/100 g of blood plasma | 4.87 mg/100 g of blood plasma | 4.98 mg/100 g of blood plasma | 4.39 mg/100 g of blood plasma | 4.19 mg/100 g of blood plasma | 0.76 mg/100 g of blood plasma | 80 |  |  |  |  |  |  |  |  |  | approximately 80% | less than one | CSCC[C@H](N)C(=O)OC(C)(C)C [Tertiary butyl methioninate, tertiary butyl methioninate] |
| 0.36 mg/100 g of blood plasma | 2.78 mg/100 g of blood plasma | 2.60 mg/100 g of blood plasma | 2.30 mg/100 g of blood plasma | 2.00 mg/100 g of blood plasma | 1.43 mg/100 g of blood plasma | 0.38 mg/100 g of blood plasma | 30 |  |  |  |  |  |  |  |  |  |  |  | CCOC(=O)[C@@H](N)CCSC.Cl [Methionine ethyl ester hydrochloride, methionine ethyl ester hydrochloride] |
| 0.29 mg/100 g of blood plasma | 2.55 mg/100 g of blood plasma | 2.27 mg/100 g of blood plasma | 1.88 mg/100 g of blood plasma | 1.61 mg/100 g of blood plasma | 1.55 mg/100 g of blood plasma | 0.38 mg/100 g of blood plasma | 35 |  |  |  |  |  |  |  |  |  |  |  | CSCC[C@H](N)C(=O)OC1CCCCC1 [Cyclohexyl methioninate, cyclohexyl methioninate] |
| 0.31 mg/100 g of blood plasma | 1.22 mg/100 g of blood plasma | 0.92 mg/100 g of blood plasma | 0.94 mg/100 g of blood plasma | 1.06 mg/100 g of blood plasma | 1.07 mg/100 g of blood plasma | 0.35 mg/100 g of blood plasma | 17 |  |  |  |  |  |  |  |  |  |  |  | CCCCCCOC(=O)[C@@H](N)CCSC [n-hexyl methioninate] |
| 0.41 mg/100 g of blood plasma | 1.96 mg/100 g of blood plasma | 1.43 mg/100 g of blood plasma | 1.27 mg/100 g of blood plasma | 1.18 mg/100 g of blood plasma | 1.22 mg/100 g of blood plasma | 0.43 mg/100 g of blood plasma | 25 |  |  |  |  |  |  |  |  |  |  |  | COC(=O)[C@@H](N)CCSC.Cl [Methionine methyl ester hydrochloride, methionine methyl ester hydrochloride] |
|  |  |  |  |  |  |  |  |  |  |  |  |  |  |  |  | 20 |  |  | CSCCC(O)C(=O)OC1CCCCC1 (centres unmarked) [cyclohexyl ester of HMB] |

Source: patent US6872749B2, “Method for supplying bioavailable methionine to a cow” (Adisseo Ireland Limited, priority 1998, dated 2005)
